# Laboratory results from ChEMBL document CHEMBL1201861, “Genomics of Drug Sensitity in Cancer screening data, Wellcome Trust Sanger Institute”.
# Experiments:
# [1] = test system: NCI-H1792; assay: cells; assay type: functional, cell-based, Homo sapiens; settings: Homo sapiens, NCI-H1792;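 also: growth inhibition of human NCI-H1792 cells, read out as cell viability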
# Description: SANGER: Inhibition of human NCI-H1792 cell growth in a cell viability assay.
# [2] = test system: HSC-4; assay: cells; assay type: functional, cell-based, Homo sapiens; settings: Homo sapiens, HSC-4;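 also: growth inhibition of human HSC-4 cells, read out with a cell viability assay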
# Description: SANGER: Inhibition of human HSC-4 cell growth in a cell viability assay.
# [3] = test system: NCI-H441; assay: cells; assay type: functional, cell-based; settings: Homo sapiens;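 also: growth inhibition of NCI-H441 cells, read out with a cell viability assay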
# Description: SANGER: Inhibition of human NCI-H441 cell growth in a cell viability assay.
# [4] = test system: DU-4475; assay: cells; assay type: functional, cell-based; settings: Homo sapiens
# Description: SANGER: Inhibition of human DU-4475 cell growth in a cell viability assay.
# [5] = test system: NCI-H889; assay: cells; assay type: functional, cell-based; settings: Homo sapiens;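 also: cell growth inhibition of the cell line, read out with a viability assay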
# Description: SANGER: Inhibition of human NCI-H889 cell growth in a cell viability assay.
# [6] = test system: HT-1080; assay: cells; assay type: functional, cell-based, Homo sapiens; settings: Homo sapiens, HT-1080
# Description: SANGER: Inhibition of human HT-1080 cell growth in a cell viability assay.
# [7] = test system: NCI-H1395; assay: cells; assay type: functional, cell-based, Homo sapiens; settings: Homo sapiens, NCI-H1395;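 also: cell viability assay read-out quantifying reduced proliferation of human NCI-H1395 cells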
# Description: SANGER: Inhibition of human NCI-H1395 cell growth in a cell viability assay.
# [8] = test system: TUR; assay: cells; assay type: functional, cell-based; settings: Homo sapiens;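 also: growth inhibition of human TUR cells, read out with a cell viability assay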
# Description: SANGER: Inhibition of human TUR cell growth in a cell viability assay.
# [9] = test system: MEL-JUSO; assay: cells; assay type: functional, cell-based, Homo sapiens; settings: Homo sapiens, MEL-JUSO;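 also: growth inhibition of human MEL-JUSO cells, read out with a cell viability assay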
# Description: SANGER: Inhibition of human MEL-JUSO cell growth in a cell viability assay.
# [10] = test system: REH; assay: cells; assay type: functional, cell-based; settings: Homo sapiens;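 also: growth inhibition of REH cells determined with a cell viability read-out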
# Description: SANGER: Inhibition of human REH cell growth in a cell viability assay.
# [11] = test system: LS-123; assay: cells; assay type: functional, cell-based, Homo sapiens; settings: Homo sapiens, LS-123
# Description: SANGER: Inhibition of human LS-123 cell growth in a cell viability assay.
# [12] = test system: GB-1; assay: cells; assay type: functional, cell-based, Homo sapiens; settings: Homo sapiens, GB-1;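 also: growth of GB-1 cells judged by a viability assay, IC50 marks the concentration inhibiting growth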
# Description: SANGER: Inhibition of human GB-1 cell growth in a cell viability assay.
# [13] = test system: RPMI 8402; assay: SANGER: Inhibition of human RPMI-8402 cell growth in a cell viability assay.; assay type: functional, cell-based
# [14] = test system: CPC-N; assay: cells; assay type: functional, cell-based; settings: Homo sapiens;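 also: growth inhibition of CPC-N cells, with a cell viability assay as the readout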
# Description: SANGER: Inhibition of human CPC-N cell growth in a cell viability assay.
# [15] = test system: DSH1; assay: cells; assay type: functional, cell-based, Homo sapiens; settings: Homo sapiens, DSH1;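 also: growth inhibition of human DSH1 cells, measured with a cell viability readout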
# Description: SANGER: Inhibition of human DSH1 cell growth in a cell viability assay.
# [16] = test system: SNU-423; assay: cells; assay type: functional, cell-based, Homo sapiens; settings: Homo sapiens, SNU-423
# Description: SANGER: Inhibition of human SNU-423 cell growth in a cell viability assay.
# [17] = test system: NCI-H748; assay: cells; assay type: functional, cell-based; settings: Homo sapiens;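 also: growth inhibition of NCI-H748 cells, measured by a cell viability assay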
# Description: SANGER: Inhibition of human NCI-H748 cell growth in a cell viability assay.
# [18] = test system: NCI-H1573; assay: cells; assay type: functional, cell-based; settings: Homo sapiens;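 also: growth inhibition of NCI-H1573 cells, read out with a cell viability assay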
# Description: SANGER: Inhibition of human NCI-H1573 cell growth in a cell viability assay.
# [19] = test system: NCI-H522; assay: cells; assay type: functional, cell-based, Homo sapiens; settings: Homo sapiens, NCI-H522;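 also: cell viability assay measuring growth inhibition of human NCI-H522 cells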
# Description: SANGER: Inhibition of human NCI-H522 cell growth in a cell viability assay.
# [20] = test system: COLO-680N; assay: cells; assay type: functional, cell-based, Homo sapiens; settings: Homo sapiens, COLO-680N;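 also: cell viability assay used to measure inhibition of COLO-680N cell growth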
# Description: SANGER: Inhibition of human COLO-680N cell growth in a cell viability assay.
# [21] = test system: CMK; assay: cells; assay type: functional, cell-based; settings: Homo sapiens;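 also: growth inhibition of CMK cells, read out as cell viability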
# Description: SANGER: Inhibition of human CMK cell growth in a cell viability assay.
# [22] = test system: NCI-H1522; assay: cells; assay type: functional, cell-based; settings: Homo sapiens;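 also: growth inhibition of NCI-H1522 cells, read out with a cell viability assay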
# Description: SANGER: Inhibition of human NCI-H1522 cell growth in a cell viability assay.
# [23] = test system: NCI-H64; assay: cells; assay type: functional, cell-based; settings: Homo sapiens;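 also: growth inhibition of NCI-H64 cells, read out with a cell viability assay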
# Description: SANGER: Inhibition of human NCI-H64 cell growth in a cell viability assay.
# [24] = test system: no-11; assay: cells; assay type: functional, cell-based, Homo sapiens; settings: Homo sapiens;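 also: growth inhibition of human NO-11 cells, read out with a cell viability assay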
# Description: SANGER: Inhibition of human no-11 cell growth in a cell viability assay.
# [25] = test system: A3-KAW; assay: cells; assay type: functional, cell-based; settings: Homo sapiens;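 also: growth inhibition of human A3-KAW cells, read out with a cell viability assay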
# Description: SANGER: Inhibition of human A3-KAW cell growth in a cell viability assay.
# [26] = test system: U-698-M; assay: cells; assay type: functional, cell-based; settings: Homo sapiens
# Description: SANGER: Inhibition of human U-698-M cell growth in a cell viability assay.
# [27] = test system: AU565; assay: cells; assay type: functional, cell-based, Homo sapiens; settings: Homo sapiens, AU565;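 also: cell viability assay measuring growth inhibition of human AU565 cells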
# Description: SANGER: Inhibition of human AU565 cell growth in a cell viability assay.
# [28] = test system: NALM-6; assay: cells; assay type: functional, cell-based; settings: Homo sapiens;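 also: growth inhibition of NALM-6 cells, read out with a cell viability assay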
# Description: SANGER: Inhibition of human NALM-6 cell growth in a cell viability assay.
# [29] = test system: NCCIT; assay: SANGER: Inhibition of human NCCIT cell growth in a cell viability assay.; assay type: functional, cell-based
# [30] = test system: 23132-87; assay: cells; assay type: functional, cell-based, Homo sapiens; settings: Homo sapiens
# Description: SANGER: Inhibition of human 23132-87 cell growth in a cell viability assay.
# [31] = test system: CGTH-W-1; assay: cells; assay type: functional, cell-based, Homo sapiens; settings: Homo sapiens, CGTH-W-1;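 also: growth inhibition of human CGTH-W-1 cells measured by cell viability assay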
# Description: SANGER: Inhibition of human CGTH-W-1 cell growth in a cell viability assay.
# [32] = test system: H4; assay: cells; assay type: functional, cell-based; settings: Homo sapiens
# Description: SANGER: Inhibition of human H4 cell growth in a cell viability assay.
# [33] = test system: EB2; assay: cells; assay type: functional, cell-based; settings: Homo sapiens;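 also: growth inhibition of EB2 cells, read out with a cell viability assay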
# Description: SANGER: Inhibition of human EB2 cell growth in a cell viability assay.
# [34] = test system: SR; assay: cells; assay type: functional, cell-based; settings: Homo sapiens
# Description: SANGER: Inhibition of human SR cell growth in a cell viability assay.
# [35] = test system: ST486; assay: SANGER: Inhibition of human ST486 cell growth in a cell viability assay.; assay type: functional, cell-based
# [36] = test system: G-361; assay: cells; assay type: functional, cell-based, Homo sapiens; settings: Homo sapiens, G-361
# [37] = test system: HDLM-2; assay: cells; assay type: functional, cell-based; settings: Homo sapiens;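 also: cell viability assay measuring suppression of HDLM-2 proliferation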
# Description: SANGER: Inhibition of human HDLM-2 cell growth in a cell viability assay.
# [38] = test system: SK-MEL3; assay: cells; assay type: functional, cell-based, Homo sapiens, SK-MEL-3; settings: Homo sapiens, SK-MEL3;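 also: growth inhibition of human SK-MEL-3 cells, read out with a cell viability assay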
# Description: SANGER: Inhibition of human SK-MEL-3 cell growth in a cell viability assay.
# [39] = test system: J82; assay: cells; assay type: functional, cell-based; settings: Homo sapiens;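 also: growth inhibition of J82 cells, read out with a cell viability assay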
# Description: SANGER: Inhibition of human J82 cell growth in a cell viability assay.
# [40] = test system: DMS-153; assay: cells; assay type: functional, cell-based; settings: Homo sapiens
# Description: SANGER: Inhibition of human DMS-153 cell growth in a cell viability assay.
# [41] = test system: DU-145; assay: cells; assay type: functional, cell-based, Homo sapiens; settings: Homo sapiens, DU-145
# Description: SANGER: Inhibition of human DU-145 cell growth in a cell viability assay.
# [42] = test system: HT55; assay: cells; assay type: functional, cell-based, Homo sapiens; settings: Homo sapiens, HT55;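 also: cell viability readout measuring growth inhibition of human HT55 cells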
# Description: SANGER: Inhibition of human HT55 cell growth in a cell viability assay.
# [43] = test system: THP-1; assay: cells; assay type: functional, cell-based; settings: Homo sapiens;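 also: growth inhibition of THP-1 cells, read out via a cell viability assay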
# Description: SANGER: Inhibition of human THP-1 cell growth in a cell viability assay.
# [44] = test system: LC4-1; assay: cells; assay type: functional, cell-based; settings: Homo sapiens;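 also: growth inhibition of LC4-1 cells, read out with a cell viability assay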
# Description: SANGER: Inhibition of human LC4-1 cell growth in a cell viability assay.
# [45] = test system: SIG-M5; assay: cells; assay type: functional, cell-based; settings: Homo sapiens;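 also: cell viability assay read-out, measuring how strongly growth of cultured human SIG-M5 cells is inhibited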
# Description: SANGER: Inhibition of human SIG-M5 cell growth in a cell viability assay.
# [46] = test system: TALL-1; assay: cells; assay type: functional, cell-based; settings: Homo sapiens;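 also: growth inhibition of cultured human TALL-1 cells, read out by a cell viability assay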
# Description: SANGER: Inhibition of human TALL-1 cell growth in a cell viability assay.
# [47] = test system: BC-3; assay: cells; assay type: functional, cell-based; settings: Homo sapiens;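 also: cell viability assay measuring growth inhibition of human BC-3 cells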
# Description: SANGER: Inhibition of human BC-3 cell growth in a cell viability assay.
# [48] = test system: TE-441-T; assay: cells; assay type: functional, cell-based; settings: Homo sapiens
# Description: SANGER: Inhibition of human TE-441-T cell growth in a cell viability assay.
# [49] = test system: HT-144; assay: cells; assay type: functional, cell-based, Homo sapiens; settings: Homo sapiens, HT-144
# Description: SANGER: Inhibition of human HT-144 cell growth in a cell viability assay.
# [50] = test system: PA-1; assay: cells; assay type: functional, cell-based, Homo sapiens; settings: Homo sapiens, PA-1;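 also: IC50 for suppression of PA-1 cell proliferation, determined with a cell viability read-out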
# Description: SANGER: Inhibition of human PA-1 cell growth in a cell viability assay.
# [51] = test system: MC-CAR; assay: cells; assay type: functional, cell-based; settings: Homo sapiens;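 also: growth inhibition of the human MC-CAR cell line, read out by a cell viability assay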
# Description: SANGER: Inhibition of human MC-CAR cell growth in a cell viability assay.
# [52] = test system: TE-6; assay: cells; assay type: functional, cell-based, Homo sapiens; settings: Homo sapiens, TE-6;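 also: growth inhibition of TE-6 cells, read out with a cell viability assay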
# Description: SANGER: Inhibition of human TE-6 cell growth in a cell viability assay.
# [53] = test system: PC-14; assay: cells; assay type: functional, cell-based, Homo sapiens; settings: Homo sapiens, PC-14;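 also: cell viability assay measuring inhibition of PC-14 cell growth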
# Description: SANGER: Inhibition of human PC-14 cell growth in a cell viability assay.
# [54] = test system: NCI-H524; assay: cells; assay type: functional, cell-based; settings: Homo sapiens;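 also: growth inhibition of human NCI-H524 cells, read out through a cell viability assay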
# Description: SANGER: Inhibition of human NCI-H524 cell growth in a cell viability assay.
compound,measurement,setting,value
C[C@]1(O)C[C@@H](c2nc(-c3ccc4ccc(-c5ccccc5)nc4c3)c3c(N)nccn32)C1 [LINSITINIB],IC50,[1],> 2560 nM
same,IC50,[2],> 2560 nM
same,IC50,[3],> 2560 nM
same,IC50,[4],> 2560 nM
same,IC50,[5],> 2560 nM
same,IC50,[6],> 2560 nM
same,IC50,[7],> 2560 nM
same,IC50,[8],> 2560 nM
same,IC50,[9],1160 nM
same,IC50,[10],> 2560 nM
same,IC50,[11],> 2560 nM
same,IC50,[12],> 2560 nM
same,IC50,[13],> 2560 nM
same,IC50,[14],> 2560 nM
same,IC50,[15],> 2560 nM
same,IC50,[16],> 2560 nM
same,IC50,[17],> 2560 nM
same,IC50,[18],> 2560 nM
same,IC50,[19],> 2560 nM
same,IC50,[20],> 2560 nM
same,IC50,[21],999 nM
same,IC50,[22],> 2560 nM
same,IC50,[23],> 2560 nM
same,IC50,[24],> 2560 nM
same,IC50,[25],> 2560 nM
same,IC50,[26],> 2560 nM
same,IC50,[27],> 2560 nM
same,IC50,[28],> 2560 nM
same,IC50,[29],> 2560 nM
same,IC50,[30],> 2560 nM
same,IC50,[31],> 2560 nM
same,IC50,[32],> 2560 nM
same,IC50,[33],> 2560 nM
same,IC50,[34],> 2560 nM
same,IC50,[35],> 2560 nM
same,IC50,[36],> 2560 nM
same,IC50,[37],> 2560 nM
same,IC50,[38],1490 nM
same,IC50,[39],> 2560 nM
same,IC50,[40],> 2560 nM
same,IC50,[41],> 2560 nM
same,IC50,[42],> 2560 nM
same,IC50,[43],> 2560 nM
same,IC50,[44],> 2560 nM
same,IC50,[45],536 nM
same,IC50,[46],> 2560 nM
same,IC50,[47],> 2560 nM
same,IC50,[48],> 2560 nM
same,IC50,[49],262 nM
same,IC50,[50],> 2560 nM
same,IC50,[51],> 2560 nM
same,IC50,[52],> 2560 nM
same,IC50,[53],> 2560 nM
same,IC50,[54],> 2560 nM
C=CCc1cccc(/C=N/NC(=O)CN2CCN(Cc3ccccc3)CC2)c1O [PAC-1],IC50,[1],> 2560 nM
same,IC50,[2],> 2560 nM
same,IC50,[3],> 2560 nM
same,IC50,[4],1910 nM
same,IC50,[5],> 2560 nM
same,IC50,[6],> 2560 nM
same,IC50,[7],> 2560 nM
same,IC50,[8],> 2560 nM
same,IC50,[9],> 2560 nM
same,IC50,[10],944 nM
same,IC50,[11],> 2560 nM
same,IC50,[12],> 2560 nM
same,IC50,[13],1770 nM
same,IC50,[14],> 2560 nM
same,IC50,[15],> 2560 nM
same,IC50,[16],> 2560 nM
same,IC50,[17],> 2560 nM
same,IC50,[18],> 2560 nM
same,IC50,[19],> 2560 nM
same,IC50,[20],> 2560 nM
same,IC50,[21],2130 nM
same,IC50,[22],> 2560 nM
same,IC50,[23],> 2560 nM
same,IC50,[24],> 2560 nM
same,IC50,[25],1930 nM
same,IC50,[26],> 2560 nM
same,IC50,[27],> 2560 nM
same,IC50,[28],703 nM
same,IC50,[29],> 2560 nM
same,IC50,[30],> 2560 nM
same,IC50,[31],> 2560 nM
same,IC50,[32],> 2560 nM
same,IC50,[33],> 2560 nM
same,IC50,[34],> 2560 nM
same,IC50,[35],967 nM
same,IC50,[36],1190 nM
same,IC50,[37],1810 nM
same,IC50,[38],> 2560 nM
same,IC50,[39],> 2560 nM
same,IC50,[40],> 2560 nM
same,IC50,[41],> 2560 nM
same,IC50,[42],> 2560 nM
same,IC50,[43],> 2560 nM
same,IC50,[44],> 2560 nM
same,IC50,[45],> 2560 nM
same,IC50,[46],> 2560 nM
same,IC50,[47],> 2560 nM
same,IC50,[48],> 2560 nM
same,IC50,[49],2500 nM
same,IC50,[50],> 2560 nM
same,IC50,[51],1530 nM
same,IC50,[52],> 2560 nM
same,IC50,[53],> 2560 nM
same,IC50,[54],> 2560 nM
